The subject of series [1] is Rattus norvegicus. The series is described as follows: Ratio of Total electrolytic excretion of sodium and potassium in urine of rats after peroral administration of 86.7 uM/Kg of drug. The settings on record: in vivo, po. Format: ADME, organism-based.
The subject of series [2] is Rattus norvegicus. The series is described as follows: Tested for the diuretic activity by measuring the urinary volume after peroral administering 289 uM/Kg of drug in rats. Format: ADME, organism-based, Urine. The conditions noted are these: in vivo, po.
In series [3] the test system is Rattus norvegicus. Description: Ratio of Total electrolytic excretion of sodium and potassium in urine of rats after peroral administration of 289 uM/Kg of drug. The settings on record: in vivo, po. Format: ADME, organism-based.
Series [4] relates to Rattus norvegicus. The series is described as follows: Ratio of Total electrolytic excretion of sodium and potassium in urine of rats after peroral administration of 28.9 uM/Kg of drug. Format: ADME, organism-based. The settings on record: in vivo, po.
For series [5], the system named is Rattus norvegicus. The series is described as follows: Tested for the diuretic activity by measuring the urinary volume after peroral administering 28.9 uM/Kg of drug in rats. In kind it is ADME, organism-based, Urine. The conditions noted are these: in vivo, po.
The test system of series [6] is Rattus norvegicus. The series is described as follows: Total electrolytic excretion of potassium in urine of rats after peroral administration of 289 uM/Kg of drug. Format: ADME, organism-based. The conditions noted are these: in vivo, po.
The test system of series [7] is Canis familiaris. Description: Total electrolytic excretion of sodium in urine of dogs after intravenous administration of 52.4 uM/Kg of drug. The settings on record: dog, in vivo. In kind it is ADME, organism-based, Canis lupus familiaris.
Series [8] relates to Rattus norvegicus. Description: Total electrolytic excretion of potassium in urine of rats after peroral administration of 86.7 uM/Kg of drug. In kind it is ADME, organism-based. The conditions noted are these: in vivo, po.
In series [9] the test system is Rattus norvegicus. The series is described as follows: Total electrolytic excretion of sodium in urine of rats after peroral administration of 86.7 uM/Kg of drug. Format: ADME, organism-based. The settings on record: in vivo, po.
Series [10] deals with Canis familiaris. The series is described as follows: Total electrolytic excretion of chlorine in urine of dogs after intravenous administration of 7.85 uM/Kg of drug. Format: ADME, organism-based, Canis lupus familiaris. The settings on record: dog, in vivo.
In series [11] the test system is Canis familiaris. Description: Total electrolytic excretion of chlorine in urine of dogs after intravenous administration of 52.4 uM/Kg of drug. Format: ADME, organism-based, Canis lupus familiaris. The settings on record: dog, in vivo.
The subject of series [12] is Rattus norvegicus. The series is described as follows: Total electrolytic excretion of chlorine in urine of rats after peroral administration of 289 uM/Kg of drug. The conditions noted are these: in vivo, po. In kind it is ADME, organism-based.
Series [13] deals with Rattus norvegicus. Description: Ratio of Total electrolytic excretion of sodium and potassium in urine of rats after intravenous administration of 26.2 uM/Kg of drug. In kind it is ADME, organism-based. The settings on record: in vivo.
For series [14], the system named is Rattus norvegicus. The series is described as follows: Tested for the diuretic activity by measuring the urinary volume after peroral administering 86.7 uM/Kg of drug in rats. Format: ADME, organism-based, Urine. The conditions noted are these: in vivo, po.
Series [15] deals with Canis familiaris. Description: Tested for the diuretic activity by measuring the urinary volume after intravenous administering 26.2 uM/Kg of drug in dogs. Format: ADME, organism-based, Canis lupus familiaris, Urine. The settings on record: dog, in vivo.
Series [16] relates to Canis familiaris. Description: Tested for the diuretic activity by measuring the urinary volume after intravenous administering 52.4 uM/Kg of drug in dogs. Format: ADME, organism-based, Canis lupus familiaris, Urine. The conditions noted are these: dog, in vivo.
In series [17] the test system is Canis familiaris. The series is described as follows: Total electrolytic excretion of potassium in urine of dogs after intravenous administration of 7.85 uM/Kg of drug. Format: ADME, organism-based, Canis lupus familiaris. The settings on record: dog, in vivo.
For series [18], the system named is Canis familiaris. The series is described as follows: Total electrolytic excretion of sodium in urine of dogs after intravenous administration of 26.2 uM/Kg of drug. The settings on record: dog, in vivo. Format: ADME, organism-based, Canis lupus familiaris.
Series [19] relates to Rattus norvegicus. The series is described as follows: Total electrolytic excretion of chlorine in urine of rats after peroral administration of 86.7 uM/Kg of drug. In kind it is ADME, organism-based. The conditions noted are these: in vivo, po.
For series [20], the system named is Rattus norvegicus. The series is described as follows: Total electrolytic excretion of chlorine in urine of rats after peroral administration of 28.9 uM/Kg of drug. In kind it is ADME, organism-based. The settings on record: in vivo, po.
Series [21] concerns Canis familiaris. Description: Total electrolytic excretion of potassium in urine of dogs after intravenous administration of 26.2 uM/Kg of drug. Format: ADME, organism-based, Canis lupus familiaris. The settings on record: dog, in vivo.
The test system of series [22] is Rattus norvegicus. The series is described as follows: Ratio of Total electrolytic excretion of sodium and potassium in urine of rats after intravenous administration of 52.4 uM/Kg of drug. The conditions noted are these: in vivo. Format: ADME, organism-based.
The subject of series [23] is Canis familiaris. Description: Ratio of mean of 5 hr urinary excretion of Na+ and K+ from dogs at 7.85 umol/kg (iv). Format: ADME, organism-based, Canis lupus familiaris, Urine. The settings on record: dog, in vivo.
For series [24], the system named is Rattus norvegicus. The series is described as follows: Total electrolytic excretion of potassium in urine of rats after peroral administration of 28.9 uM/Kg of drug. In kind it is ADME, organism-based. The conditions noted are these: in vivo, po.
For series [25], the system named is Canis familiaris. The series is described as follows: Total electrolytic excretion of chlorine in urine of dogs after intravenous administration of 26.2 uM/Kg of drug. In kind it is ADME, organism-based, Canis lupus familiaris. The conditions noted are these: dog, in vivo.
The subject of series [26] is Canis familiaris. The series is described as follows: Total electrolytic excretion of potassium in urine of dogs after intravenous administration of 52.4 uM/Kg of drug. Format: ADME, organism-based, Canis lupus familiaris. The settings on record: dog, in vivo.
The subject of series [27] is Canis familiaris. Description: Tested for the diuretic activity by measuring the urinary volume after intravenous administering 7.85 uM/Kg of drug in dogs. In kind it is ADME, organism-based, Canis lupus familiaris, Urine. The settings on record: dog, in vivo.
Series [28] relates to Canis familiaris. The series is described as follows: Total electrolytic excretion of sodium in urine of dogs after intravenous administration of 7.85 uM/Kg of drug. Format: ADME, organism-based, Canis lupus familiaris. The settings on record: dog, in vivo.
For series [29], the system named is Rattus norvegicus. The series is described as follows: Total electrolytic excretion of sodium in urine of rats after peroral administration of 28.9 uM/Kg of drug. Format: ADME, organism-based. The settings on record: in vivo, po.
Series [30] deals with Rattus norvegicus. The series is described as follows: Total electrolytic excretion of sodium in urine of rats after peroral administration of 289 uM/Kg of drug. In kind it is ADME, organism-based. The conditions noted are these: in vivo, po.
The subject of series [31] is Rattus norvegicus. The series is described as follows: Total electrolytic excretion of sodium in urine of rats after peroral administration of 97.1 uM/Kg of drug. Format: ADME, organism-based. The conditions noted are these: in vivo, po.
The test system of series [32] is Rattus norvegicus. Description: Total electrolytic excretion of sodium in urine of rats after peroral administration of 32.4 uM/Kg of drug. In kind it is ADME, organism-based. The settings on record: in vivo, po.
The subject of series [33] is Rattus norvegicus. The series is described as follows: Tested for the diuretic activity by measuring the urinary volume after peroral administering 324 uM/Kg of drug in rats. The conditions noted are these: in vivo, po. Format: ADME, organism-based, Urine.
Series [34] relates to Rattus norvegicus. Description: Ratio of Total electrolytic excretion of sodium and potassium in urine of rats after peroral administration of 97.1 uM/Kg of drug. Format: ADME, organism-based. The settings on record: in vivo, po.
The test system of series [35] is Rattus norvegicus. Description: Total electrolytic excretion of potassium in urine of rats after peroral administration of 32.4 uM/Kg of drug. Format: ADME, organism-based. The settings on record: in vivo, po.
Series [36] relates to Rattus norvegicus. Description: Tested for the diuretic activity by measuring the urinary volume after peroral administering 32.4 uM/Kg of drug in rats. Format: ADME, organism-based, Urine. The conditions noted are these: in vivo, po.
Series [37] deals with Rattus norvegicus. The series is described as follows: Total electrolytic excretion of potassium in urine of rats after peroral administration of 324 uM/Kg of drug. In kind it is ADME, organism-based. The conditions noted are these: in vivo, po.
In series [38] the test system is Rattus norvegicus. The series is described as follows: Total electrolytic excretion of potassium in urine of rats after peroral administration of 97.1 uM/Kg of drug. In kind it is ADME, organism-based. The conditions noted are these: in vivo, po.
The subject of series [39] is Rattus norvegicus. Description: Total electrolytic excretion of chlorine in urine of rats after peroral administration of 324 uM/Kg of drug. Format: ADME, organism-based. The conditions noted are these: in vivo, po.
The test system of series [40] is Rattus norvegicus. Description: Ratio of Total electrolytic excretion of sodium and potassium in urine of rats after peroral administration of 32.4 uM/Kg of drug. Format: ADME, organism-based. The conditions noted are these: in vivo, po.
The subject of series [41] is Rattus norvegicus. Description: Ratio of Total electrolytic excretion of sodium and potassium in urine of rats after intravenous administration of 23.5 uM/Kg of drug. In kind it is ADME, organism-based. The conditions noted are these: in vivo.
In series [42] the test system is Rattus norvegicus. The series is described as follows: Tested for the diuretic activity by measuring the urinary volume after peroral administering 97.1 uM/Kg of drug in rats. Format: ADME, organism-based, Urine. The conditions noted are these: in vivo, po.
Series [43] relates to Rattus norvegicus. Description: Total electrolytic excretion of chlorine in urine of rats after peroral administration of 97.1 uM/Kg of drug. In kind it is ADME, organism-based. The conditions noted are these: in vivo, po.
Series [44] deals with Rattus norvegicus. Description: Ratio of Total electrolytic excretion of sodium and potassium in urine of rats after peroral administration of 324 uM/Kg of drug. Format: ADME, organism-based. The settings on record: in vivo, po.
The subject of series [45] is Rattus norvegicus. The series is described as follows: Total electrolytic excretion of chlorine in urine of rats after peroral administration of 32.4 uM/Kg of drug. In kind it is ADME, organism-based. The settings on record: in vivo, po.
Series [46] relates to Rattus norvegicus. The series is described as follows: Total electrolytic excretion of sodium in urine of rats after peroral administration of 324 uM/Kg of drug. In kind it is ADME, organism-based. The settings on record: in vivo, po.
The subject of series [47] is Rattus norvegicus. The series is described as follows: Ratio of Total electrolytic excretion of sodium and potassium in urine of rats after intravenous administration of 70.6 uM/Kg of drug. Format: ADME, organism-based. The settings on record: in vivo.

Consider `C1CCC(/N=C(\NC23CC4CC(CC(C4)C2)C3)N2CCOCC2)CC1`, for which the Ratio in [1] was 6.6; in series [3], 7.9; in series [4] it was 4.2; in series [13], 15.3; in [22], 12; in series [23], 8.8. The V in series [2] turned out to be 11.3 mL; in [5] it was 5.5 mL; in series [14], 9.9 mL; in [15], 197 mL; in series [16], 218 mL; in series [27] it was 62 mL. Besides, the “Excretion K+” value in [6] stood at 0.24 m equiv; in series [8], 0.24 m equiv; in series [17] it was 1.4 m equiv; in [21], 2.3 m equiv; in series [24] it was 0.24 m equiv; in series [26], 3.3 m equiv. Further, the “Excretion Na+” value in series [7] is listed as 36 m equiv; in series [9], 1.58 m equiv; in series [18], 27.9 m equiv; in series [28], 8.4 m equiv; in series [29] it was 1 m equiv; in [30], 1.86 m equiv. Also, the “Excretion Cl-” value in series [10] is 7 m equiv; in series [11], 28.8 m equiv; in series [12] it was 1.82 m equiv; in series [19] it was 1.54 m equiv; in series [20] it was 0.97 m equiv; in [25], 22.4 m equiv.
In the case of `c1ccc(C/N=C(/NCc2ccccc2)N2CCOCC2)cc1`, the figures for the “Excretion Na+” value in series [31], in series [32] and in series [46] were 1.13 m equiv, 0.77 m equiv and 2.25 m equiv, respectively. The V in series [33] was found to be 13.8 mL; in [36], 5.4 mL; in [42], 7.3 mL. Besides, the Ratio was 3.6 in series [34]; 2.4 in [40]; 16.4 in series [41]; 5.4 in series [44]; 29.5 in [47]. The “Excretion K+” value in series [35] was 0.33 m equiv; in series [37], 0.42 m equiv; in series [38] it was 0.31 m equiv. For the same compound, the “Excretion Cl-” value in series [39] was 1.94 m equiv; in series [43], 1.14 m equiv; in series [45], 0.86 m equiv.

The values are drawn from ChEMBL document CHEMBL1127385, “Synthesis and diuretic activity of alkyl- and arylguanidine analogs of N,N'-dicyclohexyl-4-morpholinecarboxamidine in rats and dogs” (J Med Chem, 1994).
